# Experiments:
# neutrophils [1] = assay: neutrophil transmigration through HUVEC monolayer; format: cell-based, human; conditions: for neutrophil transmigration (number of cells transmigrated): Table II, control 100, 90 min
# Procedure: (§1) A characteristic of neutrophils is the ability to adhere to activiated EC's and to migrate through the EC monolayer into the vascular or extravascular matrix. The effect of TMS on neutrophil interactions with EC's and their subsequent trans-endothelial migration thereof can be monitored in vitro using human umbilical endothelial cells (HUVEC's) (Luscinskas et al., J. Imm., 146, 1617, 1991). Neutrophils are added to a HUVEC monolayer and neutrophil-HUVEC interactions are assessed microscopically following fixation, embedding and staining of monolayer sections.
# Cross-sections (2 μm) of the collagen bed with HUVEC's and neutrophils
# were observed using a Zeiss light microscope with KPL W10 ahd Ph2 Neoflua
# 16 lenses. The number of cells transmigrated were counted for each view.
# (§2) HUVEC's and culture media were purchased from Cell Systems (Kirkland, Wash.). The cells were maintained and cultured as described in Luscinskas et al., supra, with some modifications. Briefly, HUVEC's were maintained in 10 ml tissue culture flasks on a collagen type I bed obtained from rat tail (Upstate Biotechnology Inc, Lake Placid, N.Y.) with CS-complete medium, CS-growth factor and CS-AF-1 (Cell Systems). Cells became confluent within 2 to 4 days when incubated in 5% CO2 at 37° C.
# For the transmigration assay, thick gels were formed in 24-well tissue culture plates. Preparation of the gel solution was carried out at 4° C. Eight parts of collagen solution (Vitrogen 100, from bovine tendon which contained less than 5 ng/ml endotoxin; Celtrix Labs, Palo Alto, Calif.), one part of 10×RPMI and one part of alkaline solution (2.2 g NaHCO3 in 100 ml of 0.05N NaOH and 200 mM HEPES) were mixed gently and distributed at 0.7 ml/well. The solution was left for 4 hr at 37° C. to eliminate air bubbles, then allowed to gel in a 37° C. oven for 3 hr. The wells were washed with 1.0 ml of CS-complete medium with attachment factors at least 4 times and every 3 to 6 hr during further incubation at 37° C. in 5% CO2.
# HUVEC's at a passage level of less than 3 were detached from 10 ml tissue culture flasks with 3 ml of Trypsin-EDTA at 37° C. for 30 to 60 sec. Immediately, 3 ml of M199 with 20% heat-inactivated FCS was added. Cells were collected by centrifugation. The pellet was resuspended in 10 ml of CS-complete medium with attachment factors. Homogeneous cell suspensions were plated at 0.7 ml to each well and the plates were incubated for 3 hr at 37° C. The supernatant, which contains dead cells, was aspirated carefully and fresh complete medium with attachment factors was added.
# The HUVEC monolayer in 24-well tissue culture plates were washed with M199 without FCS, then incubated with 1 ml/well of IL-1β (Boehringer Mannheim Biochemical Products, Indianapolis, Ind.) dissolved in M199 with 1% heat-inactivated FCS (HIFCS) at 10 U/ml. The plates were incubated at 37° C., 5% CO2 for 4 hr then washed gently with 1 ml of M199. The purified neutrophil suspension (1.5×10^6 cells/ml) in M199 containing 1% HIFCS was pre-incubated with TMS, or other effectors, for 10 min at 37° C. After aspirating the media in the well, 0.5 ml of the neutrophil suspension were added onto the HUVEC monolayer. The tissue culture plate was incubated for 90 min at 37° C.
# The culture was terminated by gently aspirating the cell suspension, adding 1 ml of 10% formaldehyde in PBS and stored at 4° C. overnight for fixation. The edge of the collagen bed was cut with a small spatula along the wall 2 hr before removal from the well. The collagen bed, which has HUVEC's on the surface and transmigrated neutrophils within was embedded in paraffin, sectioned and followed by staining with hematoxylin-eosin for microscopic examination.
# protein kinase-C = conditions: in vitro, Tamaoki & Nakano; cited from earlier work
# [2] = neutrophil viability (trypan blue exclusion); format: cell-based, human; conditions: neutrophils, Table III, control 94
# Procedure: (§3) The viability was evaluated by trypan blue exclusion assay. The cell
# (§4) incubated at 37° C. for 10 min with effectors. The aliquot was
# (§5) mixed with an equal amount of trypan blue solution and immediately counte
# (§6) under a Nikon light microscope.
# neutrophils [3] = assay: phagokinetic activity of neutrophils on gold sol-coated plates; format: cell-based, human
# Procedure: The phagokinetic activity of neutrophils on gold sol-coated plates can be determined by a technique essentially as taught in Albrecht-Buehler (Cell, 11, 395, 1977). […] Thus, the inhibitory effect of TMS on phagokinetic activity is not dependent on cytotoxicity.
# .sctn. The area swept by neutrophils was determined in photographs of the
# monolayers. The regions cleared by neutrophil movement were then cut out
# Phagokinetic activity was observed by tracing tracks of neutrophils moving on a glass substrate covered with gold colloid particles. The technique was described originally by Albrecht-Buehler, supra, using 3T3 and other cell lines. Briefly, 22×22 mm square glass coverslips (Corning Glass Works, Corning, N.Y.) were dipped for 1 min into 1% BSA prepared in Milli Q water. The BSA solution was prepared fresh each day and passed through 0.20 μm Nalgene filters (Nalgene Labware Division, Rochester, N.Y.).
# The coverslip then was drained by touching a Kim-wipe paper towel to its edge, dipped into 100% ethanol and rapidly and completely dried in a 85° C. hot airstream. The coverslip was placed in a 3.5 cm Falcon plastic dish. Then 5.4 ml of AuCl4 H and 18 ml of 36.5 mM Na2 CO3 were added to 33 ml of distilled water and heated. Immediately after reaching the boiling point, 5.4 ml of 0.1% formaldehyde in water were added quickly and mixed. The suspension of gold particles forming a brownish color was distributed immediately onto the dish (2 ml each) and the coverslip was incubated for 2 hr at 37° C.
# Particle-coated coverslips were washed in PBS, then twice in RPMI 1640 and finally put in another 3.5 cm Falcon plastic dish containing 2 ml of RPMI 1640 with glutamate and pyruvate. The coverslips were stored at 4° C. and used within 24 hr after preparation.
# The freshly-purified neutrophils (1×10^4 cells/plate) were added onto the colloid-coated coverslip. TMS and other effectors were added into the medium on the plate. As a control, the solvent of the effectors (50% ethanol) was added at an equal amount. At that concentration (0.1%), ethanol brought no significant effect on neutrophil activities. To observe cell recovery from exposure to the effectors, neutrophils (2×10^5 cells/ml) were pre-incubated at 37° C. with 12 μM of TMS, SPN and DMS, then distributed to the dish dropwise, diluting the effectors 200-fold. Incubation was conducted under 5% CO2 at 37° C. for 2 hr and terminated by adding 200 μl of 10% formaldehyde. Microscopic examination of each plate was performed with a Nikon microscope, connected to a Polaroid camera for recordings. Phagokinetic activity was measured by tracing the track of a neutrophil. The track was recorded with photographs, then the area was measured by cutting and weighing there swept area.
# GMP-140 = GMP-140 expression on platelets (flow cytometry, mAb AC1.2); format: cell-based, human
# Procedure: FIGS. 11A and 11B depict results of representative experiments assessing the percentage of platelets capable of binding an anti-GMP-140 antibody following exposure to various agents. The percentage binding activity was determined in a flow cytometer. SPN is sphingosine; H-7 is 1-(5-isoquinolinylsulfonyl)-2-methylpiperazine; Cal is calphostin-C; TMS is trimethylsphingosine; and DMS is dimethylsphingosine.
# GMP-140 expression was determined by (i) flow cytometry with mAb AC1.2, which is directed to GMP-140 and obtained from Dr. Furie (Tufts Univ. Sch. Med., Boston, Mass.) and (ii) adhesion of HL60 cells on platelet-coated solid phase.
# A suspension of platelets (1×10^8 /ml) in Tyrode's buffer was preincubated with inhibitor at pH 7.2, 37° C., for 5 minutes, then supplemented with activator, either thrombin (final concentration 1 U/ml) or phorbol 12-myristate 13-acetate (PMA (final concentration 10^-7 M), and the mixture was incubated at 37° C. for 10 minutes. Platelets were fixed with an equal volume of 2% (w/v) paraformaldehyde in PBS and washed 2 times with PBS containing 1% (w/v) BSA.
# The paraformaldehyde-fixed platelets were incubated with 50 μl of mAb AC1.2 (2.5 μg/ml) at room temperature for 30 minutes. Platelets were washed 2 times with PBS containing 1% (w/v) BSA, supplemented with 50 μl of fluorescein isothiocyanate-labeled goat anti-mouse Ig (purchased from Tago Co., Burlingame, Calif.), incubated at room temperature for 30 minutes and again washed 2 times with PBS containing 1% (w/v) BSA. As a negative control, paraformaldehyde-fixed platelets were incubated with mouse IgG instead of mAb AC1.2 and treated as described above.
# The platelets were analyzed in an Epics flow cytometer (Coulter Corp.) with suitable gating. To calculate the inhibitory effect of various reagents, the mean fluorescence intensity of resting platelets (obtained on incubation of platelets without activator) was subtracted from the value for the activated platelet sample.
# water solubility = format: physicochemical; conditions: particularly at physiologic pH
# From the text: For comparison purposes those same test cells also are exposed to sphingosine and N,N-dimethylsphingosine.
# HUVEC's = assay: morphologic damage to endothelial cells (HUVEC's); format: cell-based, human; conditions: staurosporine 2 μM, calphostin C 5 μM
# Procedure: as §1, §2
# The HUVEC monolayer in 24-well tissue culture plates were washed with M199 without FCS, then incubated with 1 ml/well of IL-1β (Boehringer Mannheim Biochemical Products, Indianapolis, Ind.) dissolved in M199 with 1% heat-inactivated FCS (HIFCS) at 10 U/ml. The plates were incubated at 37° C., 5% CO2 for 4 hr then washed gently with 1 ml of M199. […]
# [4] = system: phosphoinositide turnover; assay: fMLP-induced phosphoinositide turnover in neutrophils (32P incorporation); format: cell-based, human; conditions: Table VI, 1 μM fMLP alone, control 100
# Procedure: Amount of ^32 P in PIP and PIP2 was measured using TLC separation. The spots on TLC plates were scraped off and the radioactivity therein was measured with a Beckman scintillation counter. Each spot was compared as to intensity with the identical spot of the control sample.
# After incubation, the cells were washed and resuspended in the same buffer at a concentration of 1×10^7 cells/ml. Each suspension (1 ml) then was pretreated with TMS, SPN or DMS, or equal volume of 50% ethanol, for 10 min at 37° C. Then keeping the same temperature, fMLP was added to a final concentration of 1.0 μM. Two minutes later, the reaction was terminated by adding 3.75 ml of chloroform/methanol (1:2) to each cell suspension, followed by sonication for 15 min. An additional 1.25 ml of chloroform, 1.25 ml of water and 50 μl of acetone were added and the total mixture was mixed and left overnight.
# Following centrifugation of the mixture, the phospholipids were extracted by Folch's partition method, taking the lower phase from the cell lysate. […] The TLC plate was developed with control phospholipids, in a solvent comprising chloroform/methanol/4M NaOH at a ratio of 45:35:10 and containing 0.1% CDTA (trans-1,2-diaminocyclohexane-N,N,N',N'-tetraacetic acid) for 65 min at 37° C. The bands were identified by staining the control phospholipids with primuline and visualization under ultraviolet light. Autoradiography was performed with Kodak diagnostic film GBX-2 (Rochester N.Y.) by exposing overnight at 37° C.
# neutrophils [5] = assay: neutrophil viability (trypan blue exclusion); format: cell-based, human; conditions: Table V, 37° C., 10 min, in % (unit assumed)
# Procedure: as §3, §4, §5, §6
# [6] = Homo sapiens, Neutrophil, 1.5 h, read-out: Number of Cells/View
# [7] = Homo sapiens, Neutrophil, 2 h, read-out: Area Swept
molecule,measurement,setting,value
"CC1CNCCN1S(=O)(=O)c1cccc2cnccc12 (stereo not shown) [H-7, 1-(5-isoquinolinylsulfonyl)-2-methylpiperazine]",activity at 200 µM,neutrophils [1]; [6],38 ± 12%
same,concentration reported to inhibit protein kinase-C,protein kinase-C,15 µM
same,"viability at 10 min, 200 µM",[2]; 200 μM,79 ± 7.1%
same,activity at 200 µM,neutrophils [3]; [7],27 ± 6%
same,inhibition of GMP-140 expression,"GMP-140; PMA-induced, FIG. 11B",Neither SPN nor H-7 showed inhibition
same,inhibition of GMP-140 expression,"GMP-140; thrombin-induced, FIG. 11A",no inhibition
CCCCCCCCCCCCC/C=C/[C@@H](O)[C@H](CO)NC [N-monomethylsphingosine],water solubility,water solubility,less water soluble
CN[C@@H]1C[C@H]2O[C@@](C)([C@@H]1OC)n1c3ccccc3c3c4c(c5c6ccccc6n2c5c31)C(=O)NC4 [Staurosporine],activity at 2 µM,neutrophils [1]; [6],52 ± 25%
same,"viability at 10 min, 2 µM",[2]; 2 μM,83 ± 3.6%
same,activity at 0.2 µM,neutrophils [3]; [7],13 ± 12%
same,morphologic damage to EC's,HUVEC's,striking morphologic damage to EC's
"CSCC[C@H](NC=O)C(=O)N[C@@H](CC(C)C)C(=O)N[C@@H](Cc1ccccc1)C(=O)O [fMLP, formyl-methionyl-leucyl-phenylalanine, reference compound]",PIP labeling,[4],182 ± 39
Ceramide,neutrophil transmigration (number of cells transmigrated),neutrophils [1]; 4 μM,92 ± 24
same,neutrophil transmigration (number of cells transmigrated),neutrophils [1]; 15 μM,87 ± 27
same,neutrophil transmigration (number of cells transmigrated),neutrophils [1]; 45 μM,83 ± 16
same,Viability of neutrophils,neutrophils [5]; 5 μM,98 ± 2
same,Viability of neutrophils,neutrophils [5]; 15 μM,96 ± 1
same,Viability of neutrophils,neutrophils [5]; 45 μM,91 ± 3
same,Area Swept,"neutrophils [3]; Table I, 4.5 μM, control 100, 120 min",109 ± 25%

# Source: US5466716A, “Liposomal trimethylsphingosine” (The Biomembrane Institute, priority 1994, dated 1995)
